Data: patent US20170224819A1, “Therapeutic Combinations of a BTK Inhibitor, a PI3K Inhibitor, a JAK-2 Inhibitor, and/or a CDK 4/6 Inhibitor” (Acerta Pharma B.V., priority 2014, published 2017)

Assays:
[1] = Study of respiratory function; conditions: rats, doses through 300 mg/kg
KPC pancreatic cancer = KPC pancreatic cancer model; assay type: in vivo
canine B cell lymphoma = assay: Veterinary clinical trial in companion dogs with lymphoma; assay type: in vivo
Description: Enrollment has completed for Arm 1 and is ongoing for Arm 2.
Intra-subject dose escalation was allowed. Six of the 11 dogs that initiated at 2.5 or 5 mg/kg once daily were escalated and completed the study with dosages of 10 mg/kg twice daily. Among all the dose cohorts, 8 dogs had shrinkage of target lesions >20%; the best tumor responses were between 45-49% reduction in the sum of target lesions in two dogs.

BCR = assay: In vivo potency: expression of activation markers CD69 and CD86 after BCR stimulation with IgM; conditions: compared with ibrutinib; mice gavaged, sacrificed 3 h post-dose; flow cytometry; FIG. 137
Description: Mice were gavaged at increasing drug concentration and sacrificed at one time point (3 h post-dose). BCR is stimulated with IgM and the expression of activation markers CD69 and CD86 are monitored by flow cytometry to determine EC50's.

BTK [2] = target: BTK (Homo sapiens, UniProt Q06187); assay: BTK target occupancy in relapsed/refractory CLL patients; conditions: at lower dosage versus ibrutinib, FIG. 144
Sequence of BTK (Homo sapiens, UniProt Q06187) (Q06187 whole entry): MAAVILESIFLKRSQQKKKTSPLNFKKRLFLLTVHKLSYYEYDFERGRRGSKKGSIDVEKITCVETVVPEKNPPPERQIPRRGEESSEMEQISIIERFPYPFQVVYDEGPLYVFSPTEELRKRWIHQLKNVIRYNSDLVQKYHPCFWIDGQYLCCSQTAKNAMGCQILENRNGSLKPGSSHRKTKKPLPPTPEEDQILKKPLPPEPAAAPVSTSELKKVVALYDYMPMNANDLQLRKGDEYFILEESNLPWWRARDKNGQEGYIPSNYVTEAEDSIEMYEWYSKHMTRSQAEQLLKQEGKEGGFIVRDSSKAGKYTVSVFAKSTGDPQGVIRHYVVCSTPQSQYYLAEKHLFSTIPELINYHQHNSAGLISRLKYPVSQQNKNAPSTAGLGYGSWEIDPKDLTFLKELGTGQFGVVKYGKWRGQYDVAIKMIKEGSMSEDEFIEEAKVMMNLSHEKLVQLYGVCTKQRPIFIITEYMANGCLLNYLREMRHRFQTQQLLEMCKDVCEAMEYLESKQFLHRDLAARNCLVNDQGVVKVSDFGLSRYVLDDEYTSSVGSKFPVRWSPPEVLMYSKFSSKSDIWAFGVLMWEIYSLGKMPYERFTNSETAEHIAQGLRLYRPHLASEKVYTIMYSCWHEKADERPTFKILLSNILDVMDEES

[3] = tested on: orthotopic pancreatic cancer (KPC derived cells); assay: Orthotopic pancreatic cancer model (KPC cell line implanted in C57BL/6 mice); assay type: in vivo; conditions: orthotopic PDA model, oral 15 mg/kg
Description: Cell line derived from KrasG12D; Trp53R172H; Pdxl-Cre (KPC) mice were orthotopically implantated into the head of the pancreas after 35 passages. Based on the mice background from where the cell lines were generated, 1×10^6 cells were injected in C57BL/6 mice. Throughout the experiment, animals were provided with food and water ad libitum and subjected to a 12-h dark/light cycle. Animal studies were performed in accordance with the U.S. Public Health Service “Guidelines for the Care and Use of Laboratory Animals” (IACUC). After euthanization, pancreatic tumors were dissected out, weighed and single cell suspensions were prepared for flow cytometry analysis.

BTK [4] = target: T1, BTK (Mus musculus, UniProt P35991); assay: Molecular probe assay of irreversible BTK occupancy in MDSCs of tumor bearing PDA mice; assay type: in vivo; conditions: 15 mg/kg BID, Day 8, 4 hours post dose (N=5)
T1 construct: MDSCs were purified from tumor bearing PDA mice; endogenous in cells; host or cells: granulocytic and monocytic MDSCs from tumour-bearing PDA mice
T1 sequence (P35991 whole entry): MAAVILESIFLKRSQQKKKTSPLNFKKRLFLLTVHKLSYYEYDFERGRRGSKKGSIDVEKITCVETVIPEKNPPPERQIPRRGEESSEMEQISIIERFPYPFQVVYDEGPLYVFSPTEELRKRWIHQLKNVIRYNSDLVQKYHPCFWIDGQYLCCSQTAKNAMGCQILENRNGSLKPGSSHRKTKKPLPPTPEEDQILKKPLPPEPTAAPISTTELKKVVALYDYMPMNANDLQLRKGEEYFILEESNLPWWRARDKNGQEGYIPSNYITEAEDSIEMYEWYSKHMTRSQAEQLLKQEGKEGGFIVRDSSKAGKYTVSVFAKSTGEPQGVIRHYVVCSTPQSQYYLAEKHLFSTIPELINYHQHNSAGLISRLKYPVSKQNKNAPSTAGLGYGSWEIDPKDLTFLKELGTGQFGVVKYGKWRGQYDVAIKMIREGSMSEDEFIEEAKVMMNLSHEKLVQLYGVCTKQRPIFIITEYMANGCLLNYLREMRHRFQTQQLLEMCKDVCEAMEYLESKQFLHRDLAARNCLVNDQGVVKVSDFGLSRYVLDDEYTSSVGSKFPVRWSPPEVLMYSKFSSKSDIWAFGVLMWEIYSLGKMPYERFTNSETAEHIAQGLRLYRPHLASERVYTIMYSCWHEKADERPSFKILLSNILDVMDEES
Description: A molecular probe assay was used to calculate the percent irreversible occupancy of total BTK.

[5] = tested on: KPC derived mouse pancreatic cancer cells; assay: KPC derived pancreatic cancer cells injected into the pancreas, Formula (XVIII) and/or gemcitabine; assay type: in vivo; conditions: 15 mg/kg/BID orally
Description: In this study, KPC derived mouse pancreatic cancer cells (KrasG12D; Trp53R172H; Pdxl-Cre) were injected into the pancreases.
Single cell suspensions from tumor samples. Mouse tumor tissue was collected and stored in PBS/0.1% soybean trypsin inhibitor prior to enzymatic dissociation. Samples were finely minced with a scissors and mouse tissue was transferred into DMEM containing 1.0 mg/ml collagenase IV (Gibco), 0.1% soybean trypsin inhibitor, and 50 U/ml DNase (Roche) and incubated at 37° C. for 30 minutes with constant stirring while human tissue was digested in 2.0 mg/ml collagenase IV, 1.0 mg/ml hyluronidase, 0.1% soybean trypsin inhibitor, and 50 U/ml DNase for 45 minutes. Suspensions were filtered through a 100 micron filter and washed with FACS buffer (PBS/0.5% BSA/2.0 mM EDTA) prior to staining. Two million total cells were stained with antibodies as indicated. Intracellular detection of FoxP3 was achieved following permeabilization with BD Perm Buffer III (BD Biosciences) and eBioscience Fix/Perm respectively. Following surface staining, samples were acquired on a BD Fortessa and analyzed using FlowJo (Treestar) software.

CC#CC(=O)N1CCC[C@H]1c1nc(-c2ccc(C(=O)Nc3ccccn3)cc2)c2c(N)nccn12 [Formula (XVIII), (S)-4-(8-amino-3-(1-(but-2-ynoyl)pyrrolidin-2-yl)imidazo[1,5-a]pyrazin-1-yl)-N-(pyridin-2-yl)benzamide]
Respiratory function [1]: no treatment-related adverse effects
immunosuppressive TAMs (CD11b+Ly6ClowF4/80+Csf1r+) in tumor tissues (KPC pancreatic cancer; FIG. 128): significantly reduced
immunosuppressive MDSCs (Gr1+Ly6CHi) in tumor tissues (KPC pancreatic cancer; FIG. 129): significantly reduced
immunosuppressive Tregs (CD4+CD25+FoxP3+) in tumor tissues (KPC pancreatic cancer; FIG. 130): significantly reduced
CR by investigator evaluation (canine B cell lymphoma): 0/21
potency at inhibiting expression of activation markers CD69 and CD86 (BCR): more potent
BTK target occupancy (BTK [2]): improved
Immature myeloid infiltrate (MDSCs) [3]: decreased immature myeloid infiltrate
Immunosuppressive Tregs [3]: reduced the number of immunosuppressive Tregs
Tumor associated macrophages [3]: reduced the number of tumor associated macrophages
Tumor burden [3]: significantly reduced tumor burden
Irreversible BTK occupancy in granulocytic and monocytic MDSCs (BTK [4]): Complete BTK occupancy
Tumor burden [5]: reduction in tumor burden
